Series [1] deals with T1, mGluR1 (Rattus norvegicus, UniProt P23385).
T1 construct: P2 membrane fractions were prepared from the cerebella of male Sprague–Dawley rats; from tissue; host or cells: rat cerebellum, P2 membrane fraction
The series is described as follows: Saturation binding assay with [^3H]LY456066, rat cerebellar membranes. Details: species or system Sprague–Dawley rats. As to conditions: rats; fp from ref 10. As to the method: P2 membrane fractions were prepared from the cerebella of male Sprague–Dawley rats (n = 3), male rhesus monkeys (n = 3), and female humans (n = 4). […] Nonspecific binding was defined by heterologous displacement of 1 μM LY480084 (mGlu1 antagonist) in select wells. Plates were incubated on ice for 75 min and membranes harvested on 0.3% polyethylenimine pretreated Wallac filter mats using a Tomtec Harvester MachII (Tomtec, Hamden, CT, USA). Dissociation constant (KD) and receptor density (Bmax) values were obtained in GraphPad Prism using standard nonlinear one-site binding equations. Data are presented as mean ± SEM (n = 3 to 4); one-way analysis of variance followed by Tukey's post hoc test.

Series [2] is described as follows: In vitro stability in nonhuman primate blood and plasma. The format is in vitro ADME. Conditions: monkey, room temperature. As to the method: (§1) Nonradioactive anticoagulated blood was obtained on the day of study from either human or nonhuman primates. Aliquots of ^11C-LY2428703 (about 150 kBq) were added to 0.5 mL of whole blood or 0.5 mL of plasma. Samples were incubated at room temperature for 30 min, after which either 450 μL of the radioactive plasma was added to 720 μL of acetonitrile or 200 μL of the radioactive whole blood was added to 300 μL of water. The tube containing the blood suspension was shaken well to mix and lyse the blood cells. Seven hundred and twenty microliters of acetonitrile was subsequently added and mixed well to precipitate the proteins, followed by 100 μL of water, which was again re-mixed. Radioactivity in the tubes was measured in a gamma counter and then centrifuged at 10,000×g for 1 min. The clear supernatant liquid was injected into the high-performance liquid chromatography (HPLC) column and the precipitate counted to calculate the recovery of radioactivity into the acetonitrile.
(§2) The stability of the radioligand in whole blood or plasma was calculated as the ratio of the HPLC % composition of samples divided by the radiochemical purity of the radioligand.

The nature of series [3]: In vitro stability in human blood and plasma. Conditions: room temperature, 30 min. The format is in vitro ADME. As to the method:
as §1, §2

Series [4] concerns the target mGluR1 (Homo sapiens, UniProt Q13255). The series is described as follows: Brain PET at baseline, human. As to conditions: for VT: mean ± SD. Details: from tissue; host or cells: brain of living healthy human volunteers (in vivo PET). The series is classed as in vivo. From the text: Three healthy females participated in the study (29 ± 2-year old, 69 ± 13 kg). All were free from current medical and psychiatric illnesses, as assessed by medical history, physical examination, electrocardiogram, urinalysis including drug screening, and blood tests (complete blood count, serum chemistries, thyroid function test, and antibody screening for syphilis, HIV, and hepatitis B). The National Institutes of Health Central Nervous System Institutional Review Board approved the protocols and the consent forms. Written informed consent was obtained from all subjects.
PET images were acquired using the GE Advance scanner (GE Healthcare, Milwaukee, WI, USA) for 120 min. An 8-min ^68Ge transmission scan was obtained before the injection of the radiotracer for attenuation correction. The mean injected activity was 328 ± 12 MBq. The specific activity at the time of injection was 87.2 ± 34.7 GBq/μmol, which corresponded to 5.5 ± 2.3 nmol (0.082 ± 0.037 nmol/kg) of carrier. Blood samples (1 mL each) were drawn from the radial artery at 15-s intervals until 150 s, followed by 3-mL samples at 3, 4, 6, 8, 10, 15, 20, 30, 40, and 50 min, and 4.5 mL at 60, 75, 90, and 120 min. The unchanged parent fraction in plasma and fP of ^11C-LY2428703 were determined as described above.
To identify brain regions, magnetic resonance (MR) images were obtained using a 3-T GE Signa device (GE Healthcare, Milwaukee, WI, USA). T1-weighted structural images were acquired with a voxel size of 0.86 mm × 0.86 mm × 1.2 mm. The image acquisition sequences were the time of repetition (7.3 ms), echo time length (2.8 ms), and flip angle (6°).
The average PET image created from all frames was first coregistered to the individual MR image. Then, both MR and all PET images were spatially normalized to a standard anatomic orientation (Montreal Neurological Institute (MNI) space) based on transformation parameters from the MR images. A volume-of-interest template as implemented in PMOD (PMOD Technologies Ltd, Zurich, Switzerland) was used to obtain brain time-activity curves.
Volumes of distribution (VT) were obtained by nonlinear compartmental analysis. Goodness-of-fit by nonlinear least squares analysis was evaluated using the Akaike Information Criterion (AIC) and Model Selection Criterion (MSC). The most appropriate model is that with the smallest AIC and the largest MSC score. Goodness-of-fit by the compartment models was compared with F statistics. A value of P < 0.05 was considered significant for F statistics. The identifiability of kinetic variables was calculated as standard error obtained from the diagonal of the covariance matrix and expressed as a percentage of the rate constant.

We go through one molecule from publication PMC3683333, “^11C-LY2428703, a positron emission tomographic radioligand for the metabotropic glutamate receptor 1, is unsuitable for imaging in monkey and human brains” (EJNMMI Research, 2013).

Sequence of mGluR1 (Homo sapiens, UniProt Q13255) (Q13255 19-1194): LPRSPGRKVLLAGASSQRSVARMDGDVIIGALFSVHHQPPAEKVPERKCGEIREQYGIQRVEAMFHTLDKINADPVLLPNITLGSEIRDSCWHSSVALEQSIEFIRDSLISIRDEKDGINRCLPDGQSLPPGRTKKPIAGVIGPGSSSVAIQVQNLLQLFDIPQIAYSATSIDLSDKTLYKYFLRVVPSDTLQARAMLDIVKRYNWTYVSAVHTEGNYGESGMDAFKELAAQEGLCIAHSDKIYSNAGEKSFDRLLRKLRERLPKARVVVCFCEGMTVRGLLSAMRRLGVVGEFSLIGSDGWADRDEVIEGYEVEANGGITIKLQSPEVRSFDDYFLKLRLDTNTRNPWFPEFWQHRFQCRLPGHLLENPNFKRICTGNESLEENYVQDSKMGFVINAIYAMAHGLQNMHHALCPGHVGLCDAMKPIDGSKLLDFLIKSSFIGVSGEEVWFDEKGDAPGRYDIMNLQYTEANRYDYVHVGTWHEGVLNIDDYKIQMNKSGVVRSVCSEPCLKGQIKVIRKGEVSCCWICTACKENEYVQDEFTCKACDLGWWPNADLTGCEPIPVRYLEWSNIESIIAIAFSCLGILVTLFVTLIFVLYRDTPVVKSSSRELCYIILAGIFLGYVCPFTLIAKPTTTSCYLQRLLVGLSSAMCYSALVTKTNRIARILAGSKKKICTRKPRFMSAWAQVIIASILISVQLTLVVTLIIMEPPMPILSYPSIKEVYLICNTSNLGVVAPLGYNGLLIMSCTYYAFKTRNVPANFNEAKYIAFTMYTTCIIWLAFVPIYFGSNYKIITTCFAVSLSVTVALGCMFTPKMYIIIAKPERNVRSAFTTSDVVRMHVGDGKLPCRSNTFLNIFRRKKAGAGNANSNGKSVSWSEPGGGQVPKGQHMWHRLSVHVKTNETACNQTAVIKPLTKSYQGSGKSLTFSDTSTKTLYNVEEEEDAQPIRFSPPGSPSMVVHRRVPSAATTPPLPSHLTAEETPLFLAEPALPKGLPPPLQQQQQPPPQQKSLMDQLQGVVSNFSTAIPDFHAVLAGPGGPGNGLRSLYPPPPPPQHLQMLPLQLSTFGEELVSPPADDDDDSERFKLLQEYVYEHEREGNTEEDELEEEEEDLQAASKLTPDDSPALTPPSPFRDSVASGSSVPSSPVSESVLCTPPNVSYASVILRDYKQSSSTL
T1 sequence (P23385 19-1199): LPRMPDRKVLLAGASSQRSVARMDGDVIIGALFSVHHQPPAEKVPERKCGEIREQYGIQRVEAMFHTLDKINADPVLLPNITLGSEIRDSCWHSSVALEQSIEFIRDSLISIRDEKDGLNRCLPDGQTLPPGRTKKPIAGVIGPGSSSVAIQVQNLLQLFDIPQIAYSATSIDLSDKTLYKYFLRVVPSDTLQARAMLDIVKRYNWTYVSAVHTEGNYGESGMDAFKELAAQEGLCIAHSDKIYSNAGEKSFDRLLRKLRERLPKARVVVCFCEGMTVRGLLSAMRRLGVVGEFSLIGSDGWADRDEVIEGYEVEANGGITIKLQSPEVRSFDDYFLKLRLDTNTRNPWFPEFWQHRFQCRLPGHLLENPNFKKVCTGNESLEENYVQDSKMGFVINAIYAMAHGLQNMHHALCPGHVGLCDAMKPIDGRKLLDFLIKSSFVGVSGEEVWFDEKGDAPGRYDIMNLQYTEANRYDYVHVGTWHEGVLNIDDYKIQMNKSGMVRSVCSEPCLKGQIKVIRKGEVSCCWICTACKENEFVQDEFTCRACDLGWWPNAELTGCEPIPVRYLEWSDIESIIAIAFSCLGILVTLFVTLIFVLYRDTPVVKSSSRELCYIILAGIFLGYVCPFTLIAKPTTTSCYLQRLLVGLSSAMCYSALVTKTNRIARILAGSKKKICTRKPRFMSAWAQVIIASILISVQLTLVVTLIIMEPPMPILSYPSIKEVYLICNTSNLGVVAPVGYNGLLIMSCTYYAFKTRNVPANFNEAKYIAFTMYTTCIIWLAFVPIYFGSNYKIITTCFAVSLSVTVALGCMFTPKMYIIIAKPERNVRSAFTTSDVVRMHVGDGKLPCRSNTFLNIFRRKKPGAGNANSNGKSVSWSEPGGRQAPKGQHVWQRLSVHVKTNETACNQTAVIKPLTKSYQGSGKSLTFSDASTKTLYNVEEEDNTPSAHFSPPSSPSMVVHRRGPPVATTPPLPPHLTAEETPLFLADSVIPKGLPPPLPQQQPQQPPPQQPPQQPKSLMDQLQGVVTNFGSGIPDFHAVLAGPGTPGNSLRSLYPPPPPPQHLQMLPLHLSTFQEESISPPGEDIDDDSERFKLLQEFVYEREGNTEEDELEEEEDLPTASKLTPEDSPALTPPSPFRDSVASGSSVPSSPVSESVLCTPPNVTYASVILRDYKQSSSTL

For `Cc1c(-c2ccc(O[11CH3])cc2)nsc1NC(=O)[C@@H]1C[C@H]1C` [^11C-LY2428703], at mGluR1 [1], the “fp × Bmax/KD (=VS), effective BP” value worked out at 0.683. In series [2], the “stability in whole blood and plasma” value is recorded as “completely stable”. The values for the tracer stability in series [3] (human plasma) and in series [3] (human whole blood) were 99.4 ± 1.4% and 99.5 ± 1.1%, respectively. Also, the VT values at mGluR1 [4] (2TCM, all brain regions) is less than 0.1 mL/cm^3. Also, on mGluR1 [4] (after injection), the “time of brain peak uptake” value was 1.3 ± 0 min. For the same molecule, the “time at which brain activity decreased to 50% of the peak” value on mGluR1 [4] (average) was 20 min. Also, the VT was 0.086 ± 0.024 (22.6%) mL · cm^−3 on mGluR1 [4] (caudate, two-tissue compartment model); 0.090 ± 0.010 (2.8%) mL · cm^−3 on mGluR1 [4] (cerebellum, two-tissue compartment model); 0.092 ± 0.016 (14.2%) mL · cm^−3 at mGluR1 [4] (frontal cortex, two-tissue compartment model); 0.087 ± 0.011 (4.9%) mL · cm^−3 on mGluR1 [4] (parietal cortex, two-tissue compartment model); 0.102 ± 0.010 (4.4%) mL · cm^−3 on mGluR1 [4] (temporal cortex, two-tissue compartment model). Besides, at mGluR1 [4] (two-tissue compartment model), the “mean VT” value amounted to 0.093 ± 0.012 mL/cm^3. At mGluR1 [4] (without vascular correction), this molecule yielded a brain peak uptake of 1.14 ± 0.18 SUV.
